Measurements: ChEMBL document CHEMBL1201862, “PubChem BioAssay data set” (2004)
The source made the active and inactive calls.

Key:
Beta-lactamase [1] = biological target: Beta-lactamase (Salmonella choleraesuis (strain SC-B67), UniProt Q5J463); test: Epi-absorbance-based counterscreen for selective VIM-2 inhibitors: dose response biochemical high throughput screening assay to identify inhibitors of TEM-1 serine-beta-lactamase.
[2] = luciferase reporter signal suppression in cells – H4 neuroglioma cells, luminescence, dose response (AID 1990); format: functional, cell-based
Beta-lactamase [3] = biological target: T1, Beta-lactamase (Pseudomonas aeruginosa, UniProt Q79MP6); test: inhibition of IMP-1 beta-lactamase activity – biochemical, epi-absorbance, selectivity assay for VIM-2 inhibitor project, dose response (AID 1920)
[4] = Luminescence Cell-Based Dose Response HTS to Identify Inhibitors of 5'UTR Stem-Loop Driven Prion Protein mRNA Translation in H4 Neuroglioblastoma Cells. [Related pubchem assays: 1827 (Project Summary), 1813 (Primary HTS)]; format: functional
[5] = alpha-synuclein stem-loop luciferase translation blockers – H4 neuroglioma cells, luminescence, confirmation (AID 1988); format: functional, cell-based
Beta-lactamase [6] = biological target: T1, Beta-lactamase; test: […] counterscreen for selective VIM-2 inhibitors: dose response biochemical high throughput screening assay to identify inhibitors of IMP-1 metallo-beta-lactamase.
[7] = biological target: DNA dC->dU-editing enzyme APOBEC-3A (Homo sapiens, UniProt P31941); test: A3A deaminase inhibition for selectivity – biochemical, dose response (AID 504722); format: functional
[8] = biological target: DNA dC->dU-editing enzyme APOBEC-3G (Homo sapiens, UniProt Q9HC16); test: Dose Response confirmation of small molecule APOBEC3G DNA Deaminase Inhibitors via a fluorescence-based single-stranded DNA deaminase assay. [Related pubchem assays (depositor defined):AID493012, AID493028]; format: functional
Interleukin-8 [9] = biological target: T2, Interleukin-8 (Homo sapiens, UniProt P10145); test: Dose Response confirmation of uHTS small molecule hits for cystic fibrosis induced NFkb Inhibitors in a TNFa-induced IL8 counterscreen.; format: functional; conditions: read-out: IC50_Mean
T2 sequence (P10145 whole entry): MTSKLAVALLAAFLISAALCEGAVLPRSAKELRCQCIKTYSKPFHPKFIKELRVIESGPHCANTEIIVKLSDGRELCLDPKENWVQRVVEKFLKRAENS

Interleukin-8 [10] = biological target: T2, Interleukin-8; test: Dose Response confirmation of uHTS small molecule hits for cystic fibrosis induced NFkb Inhibitors in a PAF-induced IL8 counterscreen.; format: functional; conditions: read-out: IC50_Mean
Vero = test: viability loss in Vero cells – cell-based, plate reader, cherry-pick samples, cytotoxicity control, dose response (AID 687020); format: functional; conditions: Chlorocebus sabaeus
Protein Wnt-3a = Protein Wnt-3a (Mus musculus, UniProt P27467); test: antagonism of Wnt3a pathway luciferase reporter – Wnt-LIGHT cells, luminescence, selectivity assay for Gli-SUFU antagonist project, dose response (AID 651570); format: functional; conditions: read-out: IC50_Mean;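 also: Wnt-LIGHT reporter cells stimulated with conditioned medium from Wnt3a-producing cells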
[11] = biological target: Arf-GAP with SH3 domain, ANK repeat and PH domain-containing protein 1 (Homo sapiens, UniProt Q9ULH1); format: functional;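 also: biochemical fluorescence polarization dose–response screen measuring inhibition of ASAP1; ASAP1 GAP domain stimulating GTP hydrolysis by truncated human ARF1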
[12] = biological target: T3, Low molecular weight phosphotyrosine protein phosphatase (Homo sapiens, UniProt P24666); format: functional; conditions: read-out: IC50_Mean;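 also: Dose-response confirmation assay measuring inhibition of LMPTP enzyme activity by fluorescence intensity read-out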
T3 sequence (P24666 whole entry): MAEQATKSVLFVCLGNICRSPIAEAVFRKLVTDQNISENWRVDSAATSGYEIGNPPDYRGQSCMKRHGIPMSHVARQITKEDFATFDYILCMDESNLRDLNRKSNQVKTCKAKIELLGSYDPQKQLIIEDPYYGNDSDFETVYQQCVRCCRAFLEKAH

[13] = biological target: T4, ATP-dependent translocase ABCB1 (Homo sapiens, UniProt P08183); test: inhibition of BCRP-mediated JC-1 efflux – Ig-MXP3 cells, flow cytometry, set 2, dose response (AID 504566); format: functional; conditions: read-out: EC50_MICROM_;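 also: flow cytometry median green fluorescence of retained JC-1 dye; potency of efflux pump inhibition measured as rising substrate retention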
[14] = biological target: T4, ATP-dependent translocase ABCB1; test: P-gp JC-1 efflux blockade concentration-response – Jurkat-DNR cells, flow cytometry, set 2, dose response (AID 504569); format: functional; conditions: read-out: EC50_MICROM_;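 also: potency of pump inhibitors that raise cellular JC-1 green fluorescence up to the nicardipine level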
[15] = intracellular Trypanosoma cruzi inhibitors in host cells – cell-based, plate reader, cherry-pick samples, set 3, dose response (AID 651818); format: functional;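 also: compounds incubated with infected cells for about four days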
[16] = biological target: Hepatocyte nuclear factor 4-alpha (Homo sapiens, UniProt P41235); format: functional, cell-based;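 also: biochemical luminescence-based dose-response counterscreen measuring inhibition of HNF4 dimerization, run alongside a screen for blockers of ABHD5–perilipin-5 interaction; split luciferase complementation of HNF4 fusion proteins in cell lysate measuring dimerization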
[17] = HEK293 cell viability loss – plate reader, cherry-pick, cytotoxicity control, dose response (AID 651899); format: functional, cell-based
[18] = biological target: T5, Adenosylmethionine-8-amino-7-oxononanoate aminotransferase (Mycobacterium tuberculosis, UniProt P9WQ81); test: Mycobacterium tuberculosis BioA enzyme inhibitor Measured in Biochemical System Using Plate Reader - 2163-02_Inhibitor_Dose_CherryPick_Activity.; format: functional, Mycobacterium tuberculosis UT205
T5 sequence (P9WQ81 whole entry): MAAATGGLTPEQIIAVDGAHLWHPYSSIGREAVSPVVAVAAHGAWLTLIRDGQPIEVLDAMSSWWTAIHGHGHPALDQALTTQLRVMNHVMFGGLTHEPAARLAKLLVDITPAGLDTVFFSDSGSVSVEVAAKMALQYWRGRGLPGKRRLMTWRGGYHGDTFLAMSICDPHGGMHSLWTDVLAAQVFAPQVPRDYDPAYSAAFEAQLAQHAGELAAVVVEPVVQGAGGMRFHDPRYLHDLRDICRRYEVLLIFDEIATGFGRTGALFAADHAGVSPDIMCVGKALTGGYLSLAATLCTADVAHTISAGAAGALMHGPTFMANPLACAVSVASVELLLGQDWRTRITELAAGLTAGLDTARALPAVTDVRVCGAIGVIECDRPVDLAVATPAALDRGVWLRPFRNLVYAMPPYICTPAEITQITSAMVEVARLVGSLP

cells = format: functional, cell-based
[19] = biological target: T6, Nuclear receptor subfamily 0 group B member 1 (Homo sapiens, UniProt P51843); format: functional, cell-based;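 also: HEK293T cells transfected with SF-1 and DAX-1 plus StAR promoter luciferase reporter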
T6 sequence (P51843 whole entry): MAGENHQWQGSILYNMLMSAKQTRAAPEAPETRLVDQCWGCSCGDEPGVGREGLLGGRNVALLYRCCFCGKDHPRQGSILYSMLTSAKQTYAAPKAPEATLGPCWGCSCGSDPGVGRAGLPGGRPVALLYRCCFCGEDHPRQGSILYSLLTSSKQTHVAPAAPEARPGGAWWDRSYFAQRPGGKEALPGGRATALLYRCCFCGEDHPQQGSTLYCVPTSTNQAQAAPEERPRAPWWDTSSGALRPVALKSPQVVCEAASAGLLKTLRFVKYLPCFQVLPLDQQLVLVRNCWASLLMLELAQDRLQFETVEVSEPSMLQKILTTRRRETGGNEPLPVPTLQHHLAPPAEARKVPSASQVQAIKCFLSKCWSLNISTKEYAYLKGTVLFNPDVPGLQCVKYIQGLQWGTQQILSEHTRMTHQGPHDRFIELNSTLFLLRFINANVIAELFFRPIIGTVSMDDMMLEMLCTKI

Aminopeptidase N = biological target: T7, Aminopeptidase N (Plasmodium falciparum FcB1/Columbia, UniProt O96935); test: malaria alanyl aminopeptidase activity blockers – biochemical, fluorogenic H-Leu-NHMec substrate, 1536-well (AID 1445); set-up: species or system Plasmodium falciparum 3D7, 3D7
T7 sequence (O96935 whole entry): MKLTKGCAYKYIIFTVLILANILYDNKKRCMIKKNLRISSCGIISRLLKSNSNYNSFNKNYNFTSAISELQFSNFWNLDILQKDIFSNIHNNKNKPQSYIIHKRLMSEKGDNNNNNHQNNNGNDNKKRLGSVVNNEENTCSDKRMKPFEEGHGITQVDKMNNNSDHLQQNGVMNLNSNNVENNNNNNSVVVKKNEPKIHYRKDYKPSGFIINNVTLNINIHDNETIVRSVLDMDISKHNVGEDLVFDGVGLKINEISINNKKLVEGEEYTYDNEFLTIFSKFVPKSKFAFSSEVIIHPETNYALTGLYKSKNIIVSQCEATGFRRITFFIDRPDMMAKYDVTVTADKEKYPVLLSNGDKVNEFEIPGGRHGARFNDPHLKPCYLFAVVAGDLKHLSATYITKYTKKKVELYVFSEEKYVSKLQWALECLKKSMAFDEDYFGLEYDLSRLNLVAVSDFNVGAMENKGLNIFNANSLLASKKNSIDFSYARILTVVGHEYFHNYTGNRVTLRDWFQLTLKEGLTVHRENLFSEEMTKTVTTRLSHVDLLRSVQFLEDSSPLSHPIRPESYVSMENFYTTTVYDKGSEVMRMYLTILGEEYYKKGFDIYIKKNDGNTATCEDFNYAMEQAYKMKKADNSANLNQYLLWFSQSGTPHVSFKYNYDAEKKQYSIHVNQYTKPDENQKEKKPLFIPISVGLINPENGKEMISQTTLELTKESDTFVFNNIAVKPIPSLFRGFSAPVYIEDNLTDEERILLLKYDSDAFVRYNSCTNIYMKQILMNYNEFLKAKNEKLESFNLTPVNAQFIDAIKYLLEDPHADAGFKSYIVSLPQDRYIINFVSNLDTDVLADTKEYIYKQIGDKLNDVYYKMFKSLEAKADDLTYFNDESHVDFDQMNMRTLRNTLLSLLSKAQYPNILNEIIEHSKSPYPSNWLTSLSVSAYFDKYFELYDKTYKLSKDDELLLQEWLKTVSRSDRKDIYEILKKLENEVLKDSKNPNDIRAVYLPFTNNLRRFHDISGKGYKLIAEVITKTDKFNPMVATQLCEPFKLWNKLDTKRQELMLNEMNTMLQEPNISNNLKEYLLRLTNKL

Genome polyprotein = Genome polyprotein (dengue virus type 2, UniProt P29990); test: flavivirus cap methylation enzyme inhibition – biochemical, confirmation dose response, primary screen (AID 588689); format: functional
[20] = biological target: T8, Small ubiquitin-related modifier 1 (Homo sapiens, UniProt P63165); test: SUMO1 protein interaction blockers, potency – biochemical, fluorescence polarization, uHTS hits, dose response (AID 624382); format: functional; conditions: read-out: IC50_Mean
[21] = biological target: T8, Small ubiquitin-related modifier 1; test: SUMO1 protein-protein binding blockers, potency – biochemical, FRET, dose response (AID 624383); format: functional; conditions: read-out: IC50_Mean
Caspase-6 = biological target: T9, Caspase-6 (Homo sapiens, UniProt P55212); test: inhibition of CASP6 peptide cleavage – biochemical, VEID-R110 fluorescence, cherry-pick, dose response (AID 720632)
T9 sequence (P55212 whole entry): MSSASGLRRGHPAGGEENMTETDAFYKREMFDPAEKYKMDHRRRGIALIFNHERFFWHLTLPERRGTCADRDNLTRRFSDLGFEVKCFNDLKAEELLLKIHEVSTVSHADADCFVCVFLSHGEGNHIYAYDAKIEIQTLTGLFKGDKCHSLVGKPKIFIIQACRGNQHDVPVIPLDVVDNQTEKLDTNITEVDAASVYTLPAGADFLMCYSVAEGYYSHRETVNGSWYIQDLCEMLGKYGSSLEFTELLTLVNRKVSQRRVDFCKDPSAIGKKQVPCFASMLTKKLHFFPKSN

Caspase-7 = Caspase-7 (Homo sapiens, UniProt P55210); test: caspase-7 enzyme inhibition, selectivity check – biochemical, DEVD-R110 fluorescence, cherry-pick, selectivity assay for caspase-6 inhibitor project, dose response (AID 743295); format: functional
Caspase-8 = Caspase-8 (Homo sapiens, UniProt Q14790); test: inhibitors of purified CASP8 protease – biochemical, Z-IETD-R110 fluorescence, cherry-picked samples, selectivity assay for caspase-6 inhibitor project, dose response (AID 743294)

T4 sequence (P08183 whole entry): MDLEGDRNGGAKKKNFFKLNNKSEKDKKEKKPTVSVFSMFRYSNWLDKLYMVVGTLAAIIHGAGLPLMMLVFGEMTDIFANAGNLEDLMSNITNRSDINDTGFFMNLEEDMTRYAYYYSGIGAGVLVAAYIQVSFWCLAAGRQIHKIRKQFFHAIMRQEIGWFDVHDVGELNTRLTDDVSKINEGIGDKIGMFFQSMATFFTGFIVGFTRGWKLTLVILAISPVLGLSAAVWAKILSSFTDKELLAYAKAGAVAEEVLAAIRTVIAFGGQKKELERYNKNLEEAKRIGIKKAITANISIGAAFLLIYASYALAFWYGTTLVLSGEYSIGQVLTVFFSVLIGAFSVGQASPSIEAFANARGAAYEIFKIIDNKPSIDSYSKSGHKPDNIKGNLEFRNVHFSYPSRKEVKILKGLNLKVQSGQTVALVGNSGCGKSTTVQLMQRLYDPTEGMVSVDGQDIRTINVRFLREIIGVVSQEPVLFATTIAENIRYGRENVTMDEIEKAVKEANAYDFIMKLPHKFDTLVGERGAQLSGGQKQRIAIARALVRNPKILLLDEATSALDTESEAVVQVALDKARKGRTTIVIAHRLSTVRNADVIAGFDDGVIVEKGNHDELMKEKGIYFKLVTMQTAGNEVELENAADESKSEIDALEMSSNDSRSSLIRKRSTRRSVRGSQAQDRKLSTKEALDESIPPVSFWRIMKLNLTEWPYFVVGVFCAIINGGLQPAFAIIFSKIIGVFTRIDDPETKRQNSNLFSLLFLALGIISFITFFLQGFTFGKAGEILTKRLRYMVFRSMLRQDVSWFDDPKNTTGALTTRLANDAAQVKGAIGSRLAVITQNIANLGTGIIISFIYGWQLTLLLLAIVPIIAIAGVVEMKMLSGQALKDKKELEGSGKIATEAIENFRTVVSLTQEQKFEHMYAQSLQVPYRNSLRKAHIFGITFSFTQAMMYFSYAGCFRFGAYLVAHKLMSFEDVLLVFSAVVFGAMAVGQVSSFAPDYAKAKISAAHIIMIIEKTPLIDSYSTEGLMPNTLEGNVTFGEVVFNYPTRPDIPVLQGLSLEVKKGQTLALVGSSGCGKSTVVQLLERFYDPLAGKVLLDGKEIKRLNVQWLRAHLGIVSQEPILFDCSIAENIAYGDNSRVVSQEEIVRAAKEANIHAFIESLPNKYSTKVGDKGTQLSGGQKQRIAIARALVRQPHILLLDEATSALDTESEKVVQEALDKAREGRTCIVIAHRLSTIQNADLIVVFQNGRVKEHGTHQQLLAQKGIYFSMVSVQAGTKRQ
T8 sequence (P63165 whole entry): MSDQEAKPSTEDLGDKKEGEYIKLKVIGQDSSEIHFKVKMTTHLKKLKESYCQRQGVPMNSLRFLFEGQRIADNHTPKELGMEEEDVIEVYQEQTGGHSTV
T1 sequence (Q79MP6 whole entry): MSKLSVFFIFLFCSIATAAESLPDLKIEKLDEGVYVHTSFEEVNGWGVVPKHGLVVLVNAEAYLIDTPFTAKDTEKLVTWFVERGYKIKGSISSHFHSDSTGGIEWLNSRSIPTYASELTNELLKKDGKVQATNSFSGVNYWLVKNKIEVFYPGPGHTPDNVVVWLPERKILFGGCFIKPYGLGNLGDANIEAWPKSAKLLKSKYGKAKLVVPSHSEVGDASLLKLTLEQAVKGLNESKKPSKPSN
Chain of Hepatocyte nuclear factor 4-alpha (P41235 whole entry, the tested form may be a part): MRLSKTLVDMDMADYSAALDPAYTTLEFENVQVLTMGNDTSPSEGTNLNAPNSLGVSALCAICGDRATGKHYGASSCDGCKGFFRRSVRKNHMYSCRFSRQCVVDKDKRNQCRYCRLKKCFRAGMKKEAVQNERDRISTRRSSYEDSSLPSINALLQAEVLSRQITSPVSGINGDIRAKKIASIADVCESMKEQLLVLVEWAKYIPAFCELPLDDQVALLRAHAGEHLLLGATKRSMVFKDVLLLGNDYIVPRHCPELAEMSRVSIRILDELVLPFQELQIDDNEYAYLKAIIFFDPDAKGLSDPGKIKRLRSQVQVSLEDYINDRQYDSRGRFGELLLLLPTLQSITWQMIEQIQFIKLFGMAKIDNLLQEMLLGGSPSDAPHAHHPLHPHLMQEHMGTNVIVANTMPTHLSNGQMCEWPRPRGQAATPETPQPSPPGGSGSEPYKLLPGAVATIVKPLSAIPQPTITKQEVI
Chain of DNA dC->dU-editing enzyme APOBEC-3A (P31941 whole entry): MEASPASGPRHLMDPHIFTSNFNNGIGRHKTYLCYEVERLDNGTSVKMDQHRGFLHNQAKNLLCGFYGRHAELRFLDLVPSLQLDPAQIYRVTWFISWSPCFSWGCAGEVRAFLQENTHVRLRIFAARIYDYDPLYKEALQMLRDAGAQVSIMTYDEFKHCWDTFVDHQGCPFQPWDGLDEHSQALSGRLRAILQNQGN
Chain of Protein Wnt-3a (P27467 whole entry, the tested form may be a part): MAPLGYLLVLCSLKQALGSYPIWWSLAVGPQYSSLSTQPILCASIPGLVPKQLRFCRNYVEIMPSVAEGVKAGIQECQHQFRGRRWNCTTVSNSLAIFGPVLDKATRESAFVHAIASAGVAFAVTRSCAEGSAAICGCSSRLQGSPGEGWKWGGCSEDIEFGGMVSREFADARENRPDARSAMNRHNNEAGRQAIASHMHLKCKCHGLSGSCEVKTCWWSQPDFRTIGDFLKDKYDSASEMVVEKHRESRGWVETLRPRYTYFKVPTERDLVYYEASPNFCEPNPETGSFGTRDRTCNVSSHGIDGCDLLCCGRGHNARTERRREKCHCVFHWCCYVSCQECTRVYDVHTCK
Chain of Arf-GAP with SH3 domain, ANK repeat and PH domain-containing protein 1 (Q9ULH1 whole entry, the tested form may be a part): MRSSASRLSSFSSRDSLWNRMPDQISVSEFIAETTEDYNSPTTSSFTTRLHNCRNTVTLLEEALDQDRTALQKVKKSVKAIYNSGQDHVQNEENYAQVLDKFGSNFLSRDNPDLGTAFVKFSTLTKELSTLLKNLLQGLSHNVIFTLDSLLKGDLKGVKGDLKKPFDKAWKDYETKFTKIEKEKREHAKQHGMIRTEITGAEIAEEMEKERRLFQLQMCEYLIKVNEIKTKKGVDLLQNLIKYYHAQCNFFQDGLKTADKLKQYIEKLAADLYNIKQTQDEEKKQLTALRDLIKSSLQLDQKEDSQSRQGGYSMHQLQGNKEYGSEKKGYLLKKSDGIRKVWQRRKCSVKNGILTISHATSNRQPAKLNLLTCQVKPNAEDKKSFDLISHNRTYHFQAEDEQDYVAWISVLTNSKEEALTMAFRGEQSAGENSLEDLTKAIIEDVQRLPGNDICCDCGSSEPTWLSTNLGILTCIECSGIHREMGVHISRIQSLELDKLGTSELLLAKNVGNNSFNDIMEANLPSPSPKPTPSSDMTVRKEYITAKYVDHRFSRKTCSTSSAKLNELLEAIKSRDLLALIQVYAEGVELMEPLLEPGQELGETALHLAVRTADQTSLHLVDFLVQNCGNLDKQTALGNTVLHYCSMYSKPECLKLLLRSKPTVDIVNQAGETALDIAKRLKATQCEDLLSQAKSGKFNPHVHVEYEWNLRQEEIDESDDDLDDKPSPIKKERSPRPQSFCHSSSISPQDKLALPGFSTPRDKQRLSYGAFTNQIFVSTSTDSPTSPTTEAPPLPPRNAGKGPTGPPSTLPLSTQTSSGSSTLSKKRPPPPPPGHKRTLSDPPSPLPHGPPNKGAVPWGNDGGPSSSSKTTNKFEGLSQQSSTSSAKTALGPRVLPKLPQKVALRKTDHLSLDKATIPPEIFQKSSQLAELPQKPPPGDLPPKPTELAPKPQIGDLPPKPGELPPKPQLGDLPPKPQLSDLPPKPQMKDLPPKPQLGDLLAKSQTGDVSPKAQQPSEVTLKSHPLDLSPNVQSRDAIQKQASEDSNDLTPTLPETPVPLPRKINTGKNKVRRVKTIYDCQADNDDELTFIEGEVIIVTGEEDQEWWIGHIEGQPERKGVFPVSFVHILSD
Chain of Genome polyprotein (P29990 2492-3391 limits assumed): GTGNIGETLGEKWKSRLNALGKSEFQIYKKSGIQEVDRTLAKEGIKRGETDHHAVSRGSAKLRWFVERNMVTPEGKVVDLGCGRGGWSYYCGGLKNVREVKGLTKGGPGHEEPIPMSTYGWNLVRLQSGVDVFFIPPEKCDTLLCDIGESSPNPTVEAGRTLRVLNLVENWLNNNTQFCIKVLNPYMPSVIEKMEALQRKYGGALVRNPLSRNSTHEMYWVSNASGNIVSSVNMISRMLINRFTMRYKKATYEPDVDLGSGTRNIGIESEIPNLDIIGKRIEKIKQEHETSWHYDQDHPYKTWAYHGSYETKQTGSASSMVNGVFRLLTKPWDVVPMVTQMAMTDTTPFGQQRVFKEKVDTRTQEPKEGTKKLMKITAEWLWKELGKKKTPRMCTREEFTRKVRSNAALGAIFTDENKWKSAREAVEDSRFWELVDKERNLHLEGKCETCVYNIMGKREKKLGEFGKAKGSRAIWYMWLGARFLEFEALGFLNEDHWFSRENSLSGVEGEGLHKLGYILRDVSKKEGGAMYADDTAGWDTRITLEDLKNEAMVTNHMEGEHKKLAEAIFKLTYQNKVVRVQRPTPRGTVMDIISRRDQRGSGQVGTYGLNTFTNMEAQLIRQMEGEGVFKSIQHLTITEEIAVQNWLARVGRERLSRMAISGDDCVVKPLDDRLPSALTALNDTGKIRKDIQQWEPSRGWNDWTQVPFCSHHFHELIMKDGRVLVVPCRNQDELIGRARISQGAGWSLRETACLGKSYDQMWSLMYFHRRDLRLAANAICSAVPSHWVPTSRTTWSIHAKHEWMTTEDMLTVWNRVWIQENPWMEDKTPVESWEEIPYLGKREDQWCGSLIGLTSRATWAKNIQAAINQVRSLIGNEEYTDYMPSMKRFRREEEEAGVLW
Chain of Caspase-7 (P55210 24-198 limits assumed): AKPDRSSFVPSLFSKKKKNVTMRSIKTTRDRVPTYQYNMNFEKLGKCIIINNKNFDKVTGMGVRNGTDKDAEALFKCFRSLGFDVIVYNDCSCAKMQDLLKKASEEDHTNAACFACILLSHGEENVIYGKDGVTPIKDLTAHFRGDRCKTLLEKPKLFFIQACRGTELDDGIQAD
Chain of Caspase-7 (P55210 207-303 limits assumed): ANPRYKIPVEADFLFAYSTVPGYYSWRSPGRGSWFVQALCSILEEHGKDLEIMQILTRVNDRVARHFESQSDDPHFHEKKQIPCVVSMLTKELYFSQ

With Sc1nnc(-c2ccccc2)n1C1C=CCCC1 (centres undefined) the IC50 (Beta-lactamase [1]) was > 59.6 µM (inactive), the EC50 [2] was > 120 µM (not active) and the IC50 (Beta-lactamase [3]) was > 59.6 µM (inactive). For the same molecule, the EC50 [4] was 104 µM (active), the EC50 [5] was > 120 µM (not active) and the IC50 (Beta-lactamase [6]) was > 59.6 µM (inactive). The IC50 [7] was > 100 µM (inactive) and the IC50 [8] was 5.37 µM (active).

With O=C(Nc1ccc(N2CCN(C(=O)c3ccccc3F)CC2)cc1)c1cncc(Br)c1 the IC50 (Interleukin-8 [9]) was > 79 µM (inactive) and the IC50 (Interleukin-8 [10]) was 6.77 µM (active).

In the case of Cc1c(CCC(=O)NCCCN2CCCC2=O)c(=O)oc2cc(O)ccc12, the AC50 (Vero) was 30.1 µM (active).

With O=C(/C=C/c1ccco1)Nc1ccc(-c2nc3ccccc3[nH]2)cc1 the IC50 (Protein Wnt-3a) was 14.6 µM (active) and the IC50 [11] was 14 µM (inactive).

With CCn1cc(C(=O)O)c(=O)c2cc(F)c(N3CCN(C(=S)NC(=O)c4c(OC)cccc4OC)CC3)cc21 the IC50 [12] was 14 µM (active).

With O=C(c1cccnc1)N1CCN(c2cc(-c3ccccc3)nc3cc(-c4cccc(Cl)c4)nn23)CC1 the EC50 [13] was 0.37 µM (active) and the EC50 [14] was 0.52 µM (active).

In the case of C[C@@H]1CN([C@@H](C)CO)C(=O)Cc2cc(NS(=O)(=O)c3ccc(Cl)cc3)ccc2O[C@@H]1CN(C)Cc1ccc(Cl)c(Cl)c1, the AC50 [15] was 5.1 µM (active).

In the case of O=C(NC1CCCCC1)C(c1ccccc1)n1c(=O)c(-c2ccco2)nc2ccccc21 (centres undefined), the IC50 [16] was 0.817 µM (active).

For COc1ccccc1S(=O)(=O)N1CC[C@@H]2[C@H](CO)Nc3ccc(-c4ccccc4)cc3[C@@H]21, the AC50 [17] was 19.3 µM (active) and the AC50 [18] was 16.5 µM (active).

For COc1cc(OC)c2c(=O)cc(-c3ccccc3)oc2c1 [CHRYSIN DIMETHYL ETHER], the IC50 (cells) was > 67.6 µM (inactive) and the IC50 [19] was > 67.6 µM (inactive).

For COc1cc(C)c2c(c1C=O)Oc1c(c(C)c(O)c3c1C(O)OC3=O)OC2=O (centres undefined) [STICTIC ACID], the IC50 (Aminopeptidase N) was 27.3 µM (active), the IC50 (Genome polyprotein) was 71.2 µM (active) and the IC50 [20] was > 66.6 µM (inactive). For the same molecule, the IC50 [21] was 7.69 µM (active), the AC50 (Caspase-6) was 0.817 µM (active) and the AC50 (Caspase-7) was 44.3 µM (active). The AC50 (Caspase-8) was > 70 µM (inactive).
